Reference: US6159940A, “Method for modulating hemopoiesis” (Immunotech Developments Inc., priority 1999, dated 2000)

Key:
CFU-S [1] = test: Spleen colony formation from RAMBS-treated bone marrow in lethally irradiated mice; type: in vivo, (CBA×C57BL)F1 female mice
Text: (CBA×C57BL)F1 female mice (n=2500), 2-months old, weighing about 20 g, were used in the experiment.
As is known, there is a close relationship between T-cells and hemopoietic progenitors. It was shown that, along with colony-forming units of spleen (CFU-S), thymocytes participate in colony formation of spleens of irradiated mice by controlling proliferation of the hemopoietic progenitor cells. The fact was established in a test system, which allowed a selective removal of accessory T-cells from bone marrow with the help of rabbit antimouse brain antiserum (RAMBS) and their substitution with other factors. Aliquots (0.1 ml) of bone marrow suspension (2×10^7 cells), RAMBS, and medium 199 were mixed and incubated for 1 hour at 37° C. Then the cells were washed with centrifuging, resuspended and injected to lethally irradiated mice.
According to the aforesaid scheme, instead of thymocytes mice received the peptide, H-Ile-Glu-Trp-OH injections 30 minutes before the injections of RAMBS-treated bone marrow suspension.

CFU-S [2] = test: Reconstitution of CFU-S and nucleated cells in irradiated mice (4 Gy), i.v. versus i.m.; type: in vivo
Experimental: A further study of the effect of the peptide, using different methods of administration, on the dynamics of reconstitution of CFU-S, Nucleated blood Cells (NC) in the femoral bone marrow and peritheric blood (mm) of irradiated mice (4 Gy) was conducted.
Donor mice were irradiated with γ-rays in the dose of 4 Gy. Then they received the petide i.v. or i.m. 1, 2, 3, or 4 times, once a day, starting from the 1 first hour of the 3rd day after the irradiation (10 μg/kg per injection). […] At different intervals after the irradiation 10 mice were taken from each group to determine CFU-S in the bone marrow. The mice were killed, cell suspensions were prepared from the bone marrow and injected to lethally irradiated recipients. NC were counted in the femoral bone marrow and peritheric blood, and the lymphocyte percentage was found.

CFU-S [3] = test: Endogenous spleen colonies in irradiated mice (6 Gy); type: in vivo; settings: 10 μg/kg IM, Day 9
Experimental: Test mice were irradiated in the dose of 6 Gy Beginning from the first hour after the irradiation, the mice received once daily IM injections of 10 μg/kg H-Ile-Glu-Trp-OH. Injections were made 1, 2, 3, or 4 times. The mice were killed on Day 9, spleens were taken out and fixed in Buene's solution, the colonies were counted. 110 mice were used in the test.

Acute toxicity in mice = type: in vivo
Experimental: An acute toxicity study of the peptide was carried out in compliance with methodical recommendations of the Pharmacological Committee of the Russian Federation (RF), "Requirements to Preclinical Study of General Toxic Action of New Pharmacological Substances", M., 1985.
(§1) To establish the safety of use of the peptides, toxicity tests were performed. Toxicity tests where performed in accordance Pharmacological Committee Russian Federation (RF) "guidelines for the pre-clinical study of general toxic activity of new pharmacological compounds". M., 1985.
Acute toxicity was studied in 120 mice (60 males, 60 females). Ld50 was not reached with the dose 10000 times as high as the therapeutic one. The preferred therapeutic dose is 0.001-0.1 mg/kg.

Acute toxicity in dogs = type: in vivo; settings: 6 dogs
Experimental: as §1
Acute toxicity was studied in 20 guinea pigs and 6 dogs. […] The drug has a wide therapeutic range.

[4] = Chronic toxicity: peritheric blood and internals, 30 days, rabbits; type: in vivo; settings: once daily for 30 days
Experimental: II.1 The H-Ile-Glu-Trp-OH effect on the composition and properties of the peritheric blood, the morphological state of the internals.
The drug was injected once daily for 30 days.
The test animals were 20 rabbits and 40 guinea pigs.

[5] = Effect on arterial pressure, cats; type: in vivo
Text: The effects of H-Ile-Glu-Trp-OH on ECG and arterial pressure were studied in guinea pigs and cats.
The influence of H-Ile-Glu-Trp-OH on arterial pressure was studied in 10 cats.

[6] = Effect on kidney function (anti-diuretic activity); parameters: species or system white mice; settings: mouse, in vivo
Text: The anti-diuretic activity of H-Ile-Glu-Trp-OH was studied in 40 white mice.

[7] = Local irritating effect, guinea pigs; type: in vivo
Text: The local irritating effect of H-Ile-Glu-Trp-OH was studied in 20 guinea pigs and 5 rabbits.

Allergenicity study = type: in vivo, rabbits; settings: subcutaneous 0.01% solution for 5 days
Experimental: The study was performed in 12 rabbits, who received subcutaneous injections of 0.01% H-Ile-Glu-Trp-OH solution for 5 days. The control animals were injected with horse serum.

[8] = Toxicity study: single 0.15 g/kg or 10 μg/kg for 5 days, cellular systems on day 14; type: in vivo, male mice
Experimental: To determine the peptide toxicity, male mice received single injections of the peptide in the dose of 0.15 g per kg body weight, which was 15,000 times as large as the therapeutic dose with favourable effect in post-irradiation regeneration of hemopoietic progenitors. The second group of mice received daily peptide injections in the dose of 10 μg/kg (the therapeutical dose) for 5 days. […] On the 14-th day after the peptide injection 10 mice from each group were killed to determine the condition of their cellular systems. Nucleated cells were counted in spleen and thymus (per mg of organ weight), bone marrow, blood (per ml). Erythrocyte count and hemoglobin level were determined.

[9] = 10 mcg/kg × 5 injections, day 14

Question: Which “Average Colony Count” value (CFU-S [1]; RAMBS-treated bone marrow + preparation, lethally irradiated mice) does the source give for H-Ile-Glu-Trp-OH here?
Answer: 6,3 ± 0,4

Question: What about the “increase of colony yields as compared to RAMBS-treated bone marrow” value (CFU-S [1]; mouse, in vivo) of the same substance?
Answer: 2-3 times

Question: What about the “NC content in the bone marrow” value (CFU-S [2]; IM 10 μg/kg) of the same substance?
Answer: no effect

Question: What about the “reconstitution of the CFU-S pool” value (CFU-S [2]; IM 10 μg/kg (especially 1, 2, 3 times)) of the same substance?
Answer: positively influenced the reconstitution of the CFU-S pool earlier, beginning from day 8

Question: And the “reconstitution of the CFU-S pool” value (CFU-S [2]; i.v. 10 μg/kg 1, 3, or 4 times)?
Answer: helped better reconstitution of the CFU-S pool by day 14 only

Question: What about the “Colony (endogenous spleen colonies)” value (CFU-S [3]; 1 times) of the same substance?
Answer: 3.3 ± 0.6

Question: What about the “Colony (endogenous spleen colonies)” value (CFU-S [3]; 2 times) of the same substance?
Answer: 4.4 ± 0.5

Question: And the “Colony (endogenous spleen colonies)” value (CFU-S [3]; 3 times)?
Answer: 5.0 ± 0.7

Question: And the “Colony (endogenous spleen colonies)” value (CFU-S [3]; 4 times)?
Answer: 5.2 ± 0.8

Question: What about the Ld50 (Acute toxicity in mice; 120 mice) of the same substance?
Answer: > 10000 times as high as the therapeutic one

Question: What about the acute toxic effect (Acute toxicity in mice; intraperitoneal injection of a 10,000-fold dose) of the same substance?
Answer: did not cause an acute toxic effect

Question: What about the acute toxicity (Acute toxicity in dogs) of the same substance?
Answer: No toxic effects were observed

Question: And the “pathologic changes in the body or peritheric blood” value [4]?
Answer: did not cause any pathologic changes

Question: What about the “ECG readings and arterial pressure” value [5] of the same substance?
Answer: No significant difference from control

Question: And the anti-diuretic activity [6]?
Answer: not to have any anti-diuretic activity

Question: And the local irritating effect [7]?
Answer: no local irritating effect

Question: And the “reaction on the injection sites” value (Allergenicity study)?
Answer: No macroscopic reaction

Question: And the “Survival for 30 days” value ([8]; 10 μg/kg daily for 5 days)?
Answer: Not an animal died

Question: What about the Karyocyte Count, Spleen ([8]; 0.15 g/kg, day 14) of the same substance?
Answer: 2280 ± 30 10^3 /mg

Question: And the Karyocyte Count, Thymus ([8]; 0.15 g/kg, day 14)?
Answer: 3030 ± 250 10^3 /mg

Question: What about the erythrocyte ([8]; 0.15 g/kg, day 14) of the same substance?
Answer: 8100 ± 600 10^3

Question: And the hemoglobin ([8]; 0.15 g/kg, day 14)?
Answer: 10.8 ± 0.7 g/dL

Question: And the “karyocyte count bone marrow” value ([8]; 0.15 g/kg, day 14)?
Answer: 2.39 ± 0.25 × 10^7 /femur

Question: And the karyocytes % ([8]; 0.15 g/kg, day 14)?
Answer: 62.0 ± 3.4%

Question: What about the “karyocytes (blood)” value ([8]; 0.15 g/kg, day 14) of the same substance?
Answer: 5.4 ± 0.7 10^3

Question: And the karyocytes absolute ([8]; 0.15 g/kg, day 14)?
Answer: 3348

Question: And the weight ([8]; 0.15 g/kg, day 14)?
Answer: 21-22.0

Question: What about the Karyocyte Count, Spleen [8, 9] of the same substance?
Answer: 1760 ± 100 10^3 /mg

Question: What about the Karyocyte Count, Thymus [8, 9] of the same substance?
Answer: 2780 ± 340 10^3 /mg

Question: And the erythrocyte [8, 9]?
Answer: 8400 ± 200 10^3

Question: What about the hemoglobin [8, 9] of the same substance?
Answer: 11.5 ± 0.2 g/dL

Question: What about the “karyocyte count bone marrow” value [8, 9] of the same substance?
Answer: 1.94 ± 0.2 × 10^7 /femur

Question: And the karyocytes % [8, 9]?
Answer: 58.6 ± 3.6%

Question: And the “karyocytes (blood)” value [8, 9]?
Answer: 10.1 ± 0.8 10^3

Question: What about the weight [8, 9] of the same substance?
Answer: 21-22.5

Question: And the LD50 ([8]; not found)?
Answer: > 15,000 as large as the therapeutical one

Question: And the “growth of average weight by the end of the study” value ([8]; same as in control)?
Answer: 2 g

Question: What about the “Survival for 30 days” value ([8]; single injection 0.15 g per kg) of the same substance?
Answer: Not an animal died
